Source: PubChem BioAssay AID2060491 (Molecular Pharmacology Branch, DTP, NCI, 2025)

Test system: 857933-349-R-J2-PDC complex spheroids, viability
Test: Anticancer human tumor 857933-349-R-J2-PDC patient-derived colon adenocarcinoma cell line growth inhibition [GQUAD]
Details: for IC50: curve of first compound; for viability, T/C: stronger effect = lower value
Outline: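 Tumor cells were grown as complex spheroids with HUVEC endothelial cells and mesenchymal stem cells as stroma. G-quadruplex stabilizers were combined with targeted agents over half-log dilutions from near the clinical Cmax, or from 10 microM.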

[1] = second compound 0.0316 µM, first compound 0.0316 µM
[2] = second compound 0.0316 µM, first compound 0.1 µM
[3] = second compound 0.0316 µM, first compound 0.316 µM
[4] = second compound 0.0316 µM, first compound 1 µM
[5] = second compound 0.0316 µM, first compound 3.16 µM
[6] = second compound 0.0316 µM, first compound 10 µM
[7] = second compound 0.1 µM, first compound 0.0316 µM
[8] = second compound 0.1 µM, first compound 0.1 µM
[9] = second compound 0.1 µM, first compound 0.316 µM
[10] = second compound 0.1 µM, first compound 1 µM
[11] = second compound 0.1 µM, first compound 3.16 µM
[12] = second compound 0.1 µM, first compound 10 µM
[13] = second compound 0.316 µM, first compound 0.0316 µM
[14] = second compound 0.316 µM, first compound 0.1 µM
[15] = second compound 0.316 µM, first compound 0.316 µM
[16] = second compound 0.316 µM, first compound 1 µM
[17] = second compound 0.316 µM, first compound 3.16 µM
[18] = second compound 0.316 µM, first compound 10 µM
[19] = second compound 1 µM, first compound 0.0316 µM
[20] = second compound 1 µM, first compound 0.1 µM
[21] = second compound 1 µM, first compound 0.316 µM
[22] = second compound 1 µM, first compound 1 µM
[23] = second compound 1 µM, first compound 3.16 µM
[24] = second compound 1 µM, first compound 10 µM
[25] = second compound 3.16 µM, first compound 0.0316 µM
[26] = second compound 3.16 µM, first compound 0.1 µM
[27] = second compound 3.16 µM, first compound 0.316 µM
[28] = second compound 3.16 µM, first compound 1 µM
[29] = second compound 3.16 µM, first compound 3.16 µM
[30] = second compound 3.16 µM, first compound 10 µM
[31] = second compound 10 µM, first compound 0.0316 µM
[32] = second compound 10 µM, first compound 0.1 µM
[33] = second compound 10 µM, first compound 0.316 µM
[34] = second compound 10 µM, first compound 1 µM
[35] = second compound 10 µM, first compound 3.16 µM
[36] = second compound 10 µM, first compound 10 µM
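Further: spheroids exposed to compounds for one week before readout.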
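Wherever viability, T/C is given: percent viability relative to vehicle DMSO wells taken as 100%.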

CC(C)(O)C1CCC(Nc2ccc3ncc(-c4cccc(C(F)(F)F)c4)n3n2)CC1 (stereo not drawn) + CN(C)c1ccc(Nc2c3ccc(NC(=O)CCN4CCCC4)cc3nc3cc(NC(=O)CCN4CCCC4)ccc23)cc1
IC50 (second compound 0.0316 µM): 801 nM
IC50 (second compound 0.1 µM): 732 nM
IC50 (second compound 0.316 µM): 691 nM
IC50 (second compound 1 µM): 684 nM
IC50 (second compound 3.16 µM): 596 nM
IC50 (second compound 10 µM): 456 nM
viability, T/C [1]: 117%
viability, T/C [2]: 98.4%
viability, T/C [3]: 97.5%
viability, T/C [4]: 39.1%
viability, T/C [5]: 2.79%
viability, T/C [6]: 2.75%
viability, T/C [7]: 102%
viability, T/C [8]: 94%
viability, T/C [9]: 89.3%
viability, T/C [10]: 35.6%
viability, T/C [11]: 2.84%
viability, T/C [12]: 2.87%
viability, T/C [13]: 99%
viability, T/C [14]: 94.3%
viability, T/C [15]: 87.2%
viability, T/C [16]: 32.6%
viability, T/C [17]: 3.05%
viability, T/C [18]: 3.1%
viability, T/C [19]: 94%
viability, T/C [20]: 83.2%
viability, T/C [21]: 83.3%
viability, T/C [22]: 33.8%
viability, T/C [23]: 3.77%
viability, T/C [24]: 3.15%
viability, T/C [25]: 78.9%
viability, T/C [26]: 75.5%
viability, T/C [27]: 74.2%
viability, T/C [28]: 30.4%
viability, T/C [29]: 7.32%
viability, T/C [30]: 5.21%
viability, T/C [31]: 62.9%
viability, T/C [32]: 66.4%
viability, T/C [33]: 59.4%
viability, T/C [34]: 30.1%
viability, T/C [35]: 15.3%
viability, T/C [36]: 9.67%

O=C(NO)c1cnc(N2CCN(S(=O)(=O)c3ccc4ccccc4c3)CC2)nc1 + CN(C)c1ccc(Nc2c3ccc(NC(=O)CCN4CCCC4)cc3nc3cc(NC(=O)CCN4CCCC4)ccc23)cc1
IC50 (second compound 0.0316 µM): 1480 nM
IC50 (second compound 0.1 µM): 1510 nM
IC50 (second compound 0.316 µM): 1310 nM
IC50 (second compound 1 µM): 1230 nM
IC50 (second compound 3.16 µM): 1130 nM
IC50 (second compound 10 µM): 658 nM
viability, T/C [1]: 106%
viability, T/C [2]: 100%
viability, T/C [3]: 101%
viability, T/C [4]: 75.1%
viability, T/C [5]: 0.74%
viability, T/C [6]: 0.27%
viability, T/C [7]: 101%
viability, T/C [8]: 99.3%
viability, T/C [9]: 93.8%
viability, T/C [10]: 77.1%
viability, T/C [11]: 0.65%
viability, T/C [12]: 0.57%
viability, T/C [13]: 101%
viability, T/C [14]: 100%
viability, T/C [15]: 93%
viability, T/C [16]: 64.9%
viability, T/C [17]: 1.11%
viability, T/C [18]: 0.38%
viability, T/C [19]: 97.2%
viability, T/C [20]: 97%
viability, T/C [21]: 92.9%
viability, T/C [22]: 60.7%
viability, T/C [23]: 0.83%
viability, T/C [24]: 0.36%
viability, T/C [25]: 89%
viability, T/C [26]: 80.1%
viability, T/C [27]: 92.4%
viability, T/C [28]: 55.7%
viability, T/C [29]: 1%
viability, T/C [30]: 0.3%
viability, T/C [31]: 66.2%
viability, T/C [32]: 68.2%
viability, T/C [33]: 68.5%
viability, T/C [34]: 40%
viability, T/C [35]: 0.55%
viability, T/C [36]: 0.71%

CC(C)n1c(=O)n(C)c2cnc3cc(F)c(-c4ccc(OCCCN5CCCCC5)nc4)cc3c21 + Cc1[nH]c2ccc(F)cc2c1-c1nc2c3cccnc3c3ncccc3c2[nH]1
IC50 (second compound 0.0316 µM): > 10000 nM
IC50 (second compound 0.1 µM): > 10000 nM
IC50 (second compound 0.316 µM): > 10000 nM
IC50 (second compound 1 µM): > 10000 nM
IC50 (second compound 3.16 µM): > 10000 nM
IC50 (second compound 10 µM): > 10000 nM
viability, T/C [1]: 100%
viability, T/C [2]: 102%
viability, T/C [3]: 107%
viability, T/C [4]: 102%
viability, T/C [5]: 107%
viability, T/C [6]: 84%
viability, T/C [7]: 94.8%
viability, T/C [8]: 115%
viability, T/C [9]: 98.5%
viability, T/C [10]: 95.4%
viability, T/C [11]: 105%
viability, T/C [12]: 79.9%
viability, T/C [13]: 102%
viability, T/C [14]: 101%
viability, T/C [15]: 102%
viability, T/C [16]: 107%
viability, T/C [17]: 110%
viability, T/C [18]: 83.5%
viability, T/C [19]: 98.4%
viability, T/C [20]: 106%
viability, T/C [21]: 101%
viability, T/C [22]: 107%
viability, T/C [23]: 128%
viability, T/C [24]: 79.3%
viability, T/C [25]: 105%
viability, T/C [26]: 103%
viability, T/C [27]: 115%
viability, T/C [28]: 98.6%
viability, T/C [29]: 111%
viability, T/C [30]: 83.8%
viability, T/C [31]: 102%
viability, T/C [32]: 103%
viability, T/C [33]: 108%
viability, T/C [34]: 103%
viability, T/C [35]: 103%
viability, T/C [36]: 88.9%

CC1COCCN1c1cc(-c2ccnn2C)c2ccnc(-c3ccn[nH]3)c2n1 (stereo not drawn) + Cc1[nH]c2ccc(F)cc2c1-c1nc2c3cccnc3c3ncccc3c2[nH]1
IC50 (second compound 0.0316 µM): 250 nM
IC50 (second compound 0.1 µM): 491 nM
IC50 (second compound 0.316 µM): 327 nM
IC50 (second compound 1 µM): 280 nM
IC50 (second compound 3.16 µM): 197 nM
IC50 (second compound 10 µM): 277 nM
viability, T/C [1]: 73.7%
viability, T/C [2]: 53.2%
viability, T/C [3]: 50.3%
viability, T/C [4]: 43.8%
viability, T/C [5]: 55.3%
viability, T/C [6]: 44.8%
viability, T/C [7]: 69.6%
viability, T/C [8]: 70.9%
viability, T/C [9]: 53.2%
viability, T/C [10]: 43.5%
viability, T/C [11]: 46.9%
viability, T/C [12]: 44.2%
viability, T/C [13]: 71.7%
viability, T/C [14]: 56.6%
viability, T/C [15]: 49.2%
viability, T/C [16]: 48.8%
viability, T/C [17]: 47.4%
viability, T/C [18]: 46.6%
viability, T/C [19]: 61%
viability, T/C [20]: 61.5%
viability, T/C [21]: 48.6%
viability, T/C [22]: 43.1%
viability, T/C [23]: 52.8%
viability, T/C [24]: 50.1%
viability, T/C [25]: 75.2%
viability, T/C [26]: 56%
viability, T/C [27]: 45%
viability, T/C [28]: 43.8%
viability, T/C [29]: 44.6%
viability, T/C [30]: 44.7%
viability, T/C [31]: 74.4%
viability, T/C [32]: 57%
viability, T/C [33]: 50.4%
viability, T/C [34]: 43.1%
viability, T/C [35]: 46.1%
viability, T/C [36]: 42.6%
